Results published in ChEMBL document CHEMBL1201862, “PubChem BioAssay data set” (2004).
The source made the active and inactive calls.

What was measured:
[1] = biological target: DNA dC->dU-editing enzyme APOBEC-3G (Homo sapiens, UniProt Q9HC16); assay: Dose Response confirmation of small molecule APOBEC3G DNA Deaminase Inhibitors via a fluorescence-based single-stranded DNA deaminase assay. [Related pubchem assays (depositor defined):AID493012, AID493028]; format: functional
[2] = biological target: Induced myeloid leukemia cell differentiation protein Mcl-1 (Homo sapiens, UniProt Q07820); format: functional
Chain of Induced myeloid leukemia cell differentiation protein Mcl-1 (Q07820 whole entry): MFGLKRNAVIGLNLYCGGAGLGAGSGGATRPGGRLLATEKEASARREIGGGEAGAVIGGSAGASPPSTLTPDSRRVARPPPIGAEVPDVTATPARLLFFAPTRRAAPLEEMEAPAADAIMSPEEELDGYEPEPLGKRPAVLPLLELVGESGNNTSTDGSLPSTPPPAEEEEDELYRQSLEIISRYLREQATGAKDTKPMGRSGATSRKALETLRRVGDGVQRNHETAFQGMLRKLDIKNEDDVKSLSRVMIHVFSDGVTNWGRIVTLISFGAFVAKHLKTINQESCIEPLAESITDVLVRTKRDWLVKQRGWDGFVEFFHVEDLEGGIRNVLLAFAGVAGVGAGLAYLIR

P388/ADR = assay: cells; format: functional; settings: Mus musculus
Paired box protein Pax-8 = Paired box protein Pax-8 (Homo sapiens, UniProt Q06710); assay: PAX8 transcriptional activity inhibition in RMG-I – RMG-I cells, luciferase, cherry-pick, dose response (AID 687027); format: functional, cell-based;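 note: luciferase reporter driven by Pax8 target thyroperoxidase promoter measured by SteadyGlo luminescence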
Chain of Paired box protein Pax-8 (Q06710 whole entry): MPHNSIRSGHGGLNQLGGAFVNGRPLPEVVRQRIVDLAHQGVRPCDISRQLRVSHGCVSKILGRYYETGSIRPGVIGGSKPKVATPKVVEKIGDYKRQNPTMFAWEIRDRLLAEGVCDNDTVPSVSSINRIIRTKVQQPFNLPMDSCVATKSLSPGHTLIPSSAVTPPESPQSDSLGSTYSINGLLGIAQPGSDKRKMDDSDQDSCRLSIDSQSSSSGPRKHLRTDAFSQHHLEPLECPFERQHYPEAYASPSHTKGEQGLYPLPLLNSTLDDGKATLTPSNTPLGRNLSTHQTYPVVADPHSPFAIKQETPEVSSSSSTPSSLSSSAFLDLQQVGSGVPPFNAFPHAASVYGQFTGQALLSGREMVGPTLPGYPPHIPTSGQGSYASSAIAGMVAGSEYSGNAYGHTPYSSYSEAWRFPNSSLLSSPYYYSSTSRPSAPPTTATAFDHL

P388 = assay: cells; format: functional; settings: Mus musculus
SN12K1 = assay: cells; format: functional; settings: Homo sapiens
[3] = biological target: T1, Corticotropin-releasing factor receptor 2/Corticotropin-releasing factor-binding protein (Homo sapiens, UniProt P24387+Q13324); assay: Dose Response confirmation of uHTS hits for small molecule antagonists of the CRF-binding protein and CRF-R2 receptor complex.; format: functional; settings: read-out: IC50_Mean
T1 sequence (Q13324 whole entry): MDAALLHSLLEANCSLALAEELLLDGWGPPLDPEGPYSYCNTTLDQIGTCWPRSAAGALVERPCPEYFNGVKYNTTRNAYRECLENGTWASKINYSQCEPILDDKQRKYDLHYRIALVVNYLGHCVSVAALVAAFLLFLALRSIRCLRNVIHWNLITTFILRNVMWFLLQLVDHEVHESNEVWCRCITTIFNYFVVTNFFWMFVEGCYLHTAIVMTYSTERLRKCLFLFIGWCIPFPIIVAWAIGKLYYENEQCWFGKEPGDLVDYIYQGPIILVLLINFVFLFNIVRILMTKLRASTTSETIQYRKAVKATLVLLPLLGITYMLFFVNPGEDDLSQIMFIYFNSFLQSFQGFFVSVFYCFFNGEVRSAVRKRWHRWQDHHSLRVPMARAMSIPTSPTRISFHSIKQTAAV
T1 sequence (P24387 whole entry): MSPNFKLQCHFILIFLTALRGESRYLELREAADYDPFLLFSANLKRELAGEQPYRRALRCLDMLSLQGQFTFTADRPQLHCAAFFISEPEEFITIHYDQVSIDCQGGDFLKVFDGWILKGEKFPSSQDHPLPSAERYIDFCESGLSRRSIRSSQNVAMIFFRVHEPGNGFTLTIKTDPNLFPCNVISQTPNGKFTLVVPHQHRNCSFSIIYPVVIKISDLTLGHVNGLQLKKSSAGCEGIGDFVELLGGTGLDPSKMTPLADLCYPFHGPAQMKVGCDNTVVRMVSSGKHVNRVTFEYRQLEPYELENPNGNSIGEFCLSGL

[4] = biological target: T1, Corticotropin-releasing factor receptor 2/Corticotropin-releasing factor-binding protein; assay: activators of CRF receptor 2 with binding protein – uHTS hits, confirmation (AID 602473); format: functional; settings: read-out: EC50_Mean
[5] = blockers of CRF-binding protein–CRF-R2 complex – cell-based, uHTS hits, 384-well, dose response (AID 651639); format: functional, Homo sapiens; settings: read-out: IC50_Mean
[6] = intracellular Trypanosoma cruzi inhibitors in host cells – cell-based, plate reader, cherry-pick samples, set 3, dose response (AID 651818); format: functional;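 note: compounds incubated with infected cells for about four days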
Protein skinhead-1 = biological target: T2, Protein skinhead-1 (Caenorhabditis elegans, UniProt P34707); format: functional
T2 sequence (P34707 whole entry): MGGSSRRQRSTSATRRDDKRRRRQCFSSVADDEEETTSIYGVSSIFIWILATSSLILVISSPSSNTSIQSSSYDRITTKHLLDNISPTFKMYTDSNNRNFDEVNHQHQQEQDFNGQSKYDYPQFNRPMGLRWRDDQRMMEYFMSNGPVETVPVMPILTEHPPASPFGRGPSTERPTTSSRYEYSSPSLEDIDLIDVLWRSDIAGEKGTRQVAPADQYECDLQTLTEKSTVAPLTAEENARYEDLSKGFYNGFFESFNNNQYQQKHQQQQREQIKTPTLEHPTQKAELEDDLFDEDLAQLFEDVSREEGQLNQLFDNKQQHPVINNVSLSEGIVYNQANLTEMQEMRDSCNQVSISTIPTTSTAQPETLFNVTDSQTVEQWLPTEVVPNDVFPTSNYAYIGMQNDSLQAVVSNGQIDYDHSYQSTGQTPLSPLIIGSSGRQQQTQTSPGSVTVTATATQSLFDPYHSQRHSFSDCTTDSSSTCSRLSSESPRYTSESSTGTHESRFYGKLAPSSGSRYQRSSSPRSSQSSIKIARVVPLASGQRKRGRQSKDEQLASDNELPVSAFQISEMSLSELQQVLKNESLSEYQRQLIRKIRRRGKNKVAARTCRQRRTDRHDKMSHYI

[7] = non-specific 3'UTR reporter inhibition in Clone20-Shn3RL – cell-based, Renilla luciferase, cherry-picked, counter-screen for Shn3 inhibitor project, dose response (AID 624133); format: functional
[8] = reduction of Shn3 3'UTR-driven luciferase in osteoblasts – cell-based, Clone20 osteoblasts, firefly luciferase, cherry-picked, dose response (AID 624132); format: functional;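 note: firefly luciferase luminescence from reporter carrying the Shn3 3'UTR in osteoblasts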
[9] = Dd2 malaria parasite growth inhibition potency – SYBR Green, dry powder samples, dose response (AID 1159566); format: functional, cell-based;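 note: potency for growth inhibition with lower SYBR green DNA signal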
[10] = growth inhibition of yeast DHODH-expressing 3D7 parasites – SYBR Green, dry powder samples, dose response (AID 1159570); format: functional, cell-based;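 note: parasite growth measured after 72 hours of compound exposure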
[11] = growth inhibition of PfATP4-mutant resistant parasites – NITD609-resistant line, SYBR Green, dry powder, dose response (AID 1159571); format: functional, cell-based;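 note: parasites synchronized at ring stage by sorbitol before testing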
[12] = P. falciparum Dd2 growth inhibitors, dose response, SYBR Green, cherry-picked samples (AID 1159567); format: functional, cell-based

Chain of DNA dC->dU-editing enzyme APOBEC-3G (Q9HC16 whole entry): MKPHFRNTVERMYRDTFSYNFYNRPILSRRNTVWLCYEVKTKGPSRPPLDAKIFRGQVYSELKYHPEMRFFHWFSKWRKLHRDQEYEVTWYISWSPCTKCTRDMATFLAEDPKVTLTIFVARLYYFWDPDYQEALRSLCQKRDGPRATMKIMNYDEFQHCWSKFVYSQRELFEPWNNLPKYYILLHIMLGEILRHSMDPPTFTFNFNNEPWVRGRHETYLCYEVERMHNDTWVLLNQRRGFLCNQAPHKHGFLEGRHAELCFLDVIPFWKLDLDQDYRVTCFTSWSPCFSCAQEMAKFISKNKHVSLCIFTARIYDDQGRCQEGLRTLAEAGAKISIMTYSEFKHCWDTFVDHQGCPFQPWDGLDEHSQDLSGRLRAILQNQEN

COc1ccc(Cc2nnc(S)n2C)cc1Br
IC50 [1]: 18.9 µM (active)

CCOC(=O)c1c(NC(=O)c2cc(-c3ccc(O)cc3)on2)sc(C(C)=O)c1C
IC50 [2]: 3.69 µM (active)

CC(C)CCCCCCCCCCCCC(=O)NCC(=O)NC1C(C)OC(Nc2[nH]cnc3ncnc2-3)C(O)C1O (stereo not given)
GI50 (P388/ADR): 10 nM (active)
AC50 (Paired box protein Pax-8): < 260 nM (active)
GI50 (P388): 10 nM (active)
GI50 (SN12K1): 0.01 µM (active)

N#Cc1ccc(CN(Nc2ccccc2)c2ccccc2)cc1
IC50 [3]: 14.3 µM (active)
EC50 [4]: > 53 µM (inactive)
IC50 [5]: 10 µM (active)

CN(C)CCOc1cc2c(c3ccccc13)-c1ccccc1C2O (stereo not given)
GI50 (P388/ADR): 5770 nM (inactive)
GI50 (P388): 5020 nM (inactive)
GI50 (SN12K1): 6.62 µM (inactive)

C[C@H](CO)N1C[C@H](C)[C@H](CN(C)Cc2ccc(C(=O)Nc3ccccc3N)cc2)Oc2ccc(NC(=O)C3CC3)cc2CC1=O
AC50 [6]: 2.66 µM (active)

Cc1ccc(S(=O)(=O)N(C)C[C@H]2Oc3c(NC(=O)c4nc5ccccc5s4)cccc3C(=O)N([C@H](C)CO)C[C@@H]2C)cc1
AC50 [6]: 0.839 µM (active)

COc1ccc(NC(=O)Nc2cccc3c2O[C@@H](CN(C)Cc2ccc(C(=O)O)cc2)[C@@H](C)CN([C@@H](C)CO)C3=O)cc1
AC50 [6]: 20 µM (inactive)

C[C@@H]1CN([C@H](C)CO)C(=O)Cc2cc(NC(=O)Nc3ccc(C(F)(F)F)cc3)ccc2O[C@@H]1CN(C)S(=O)(=O)c1ccccc1
AC50 [6]: 4.23 µM (active)

C[C@@H]1CCCCO[C@@H](CN(C)Cc2ccc(Cl)c(Cl)c2)[C@@H](C)CN([C@H](C)CO)C(=O)c2cc(NS(=O)(=O)c3ccccc3)ccc2O1
AC50 [6]: 5.37 µM (active)

CSC1SCC2C(=O)N(C)C(C(C)C)C(=O)OCC(NC(=O)c3cnc4ccccc4n3)C(=O)NC(C)C(=O)N(C)C1C(=O)N(C)C(C(C)C)C(=O)OCC(NC(=O)c1cnc3ccccc3n1)C(=O)NC(C)C(=O)N2C (stereo not given)
GI50 (P388/ADR): 0.0955 nM (active)
IC50 (Protein skinhead-1): 81.5 µM (inactive)
GI50 (P388): 7.5 nM (active)
AC50 [7]: < 260 nM (active)
AC50 [8]: < 260 nM (active)
GI50 (SN12K1): 0.0075 µM (active)

COc1ccccc1S(=O)(=O)N(C)C[C@@H]1OCc2ccccc2-c2c(n(C)c3ccccc23)C(=O)N([C@@H](C)CO)C[C@@H]1C
AC50 [9]: 445 nM (active)
AC50 [10]: 507 nM (active)
AC50 [11]: 440 nM (active)
AC50 [12]: 2.19 µM (active)

CN(C)C(=O)Oc1c(Br)cc(Br)cc1C(=O)OCc1ccccc1
GI50 (P388/ADR): 16000 nM (inactive)
GI50 (P388): 17900 nM (inactive)
GI50 (SN12K1): 28.4 µM (inactive)
